What was measured:
A2780 [1] = test: Growth inhibition of human wild type A2780 cells after 72 hrs; format: functional, cell-based; settings: A2780, 72 h
[2] = Growth inhibition of human paclitaxel-resistant A2780TC3 cells overexpressing class 3 beta-tubulin after 72 hrs; format: functional, cell-based; settings: A2780TC3, 72 h
A2780 [3] = test: Resistant factor, IC50 for human paclitaxel-resistant A2780TC3 cells overexpressing class 3 beta-tubulin to IC50 for human wild type A2780 cells; format: functional
A2780 [4] = test: Growth inhibition of human cisplatin-resistant A2780 cells after 72 hrs; format: functional, cell-based; settings: A2780, 72 h
A2780 [5] = test: Growth inhibition of human topotecan-resistant A2780 cells after 72 hrs; format: functional, cell-based; settings: A2780, 72 h
A2780 [6] = test: Growth inhibition of human adriamycin and doxorubicin-resistant A2780 cells after 72 hrs; format: functional, cell-based; settings: A2780, 72 h
[7] = Growth inhibition of human paclitaxel-resistant A2780TC1 cells overexpressing class 3 beta-tubulin after 72 hrs; format: functional, cell-based; settings: A2780TC1, 72 h
[8] = Ratio of IC50 for IDN 5390 to IC50 for paclitaxel against human paclitaxel-resistant A2780TC3 cells overexpressing class 3 beta-tubulin; format: functional
A2780 [9] = test: Ratio of IC50 for drug to IC50 for paclitaxel against human adriamycin and doxorubicin-resistant A2780 cells; format: functional
[10] = Ratio of IC50 for drug to IC50 for IDN 5390 against human paclitaxel-resistant A2780TC3 cells overexpressing class 3 beta-tubulin; format: functional
A2780 [11] = test: Ratio of IC50 for drug to IC50 for IDN 5390 against human adriamycin and doxorubicin-resistant A2780 cells; format: functional
[12] = Ratio of IC50 for drug to IC50 for paclitaxel against human paclitaxel-resistant A2780TC3 cells overexpressing class 3 beta-tubulin; format: functional
[13] = Ratio of IC50 for drug to IC50 for paclitaxel against human paclitaxel-resistant A2780TC1 cells overexpressing class 3 beta-tubulin; format: functional
A2780 [14] = test: Resistant factor, IC50 for human paclitaxel-resistant A2780TC1 cells overexpressing class 3 beta-tubulin to IC50 for human wild type A2780 cells; format: functional, cell-based

SMILES	IC50 (A2780 [1])	IC50 [2]	Ratio IC50 (A2780 [3])	IC50 (A2780 [4])	IC50 (A2780 [5])	IC50 (A2780 [6])	IC50 [7]	Ratio IC50 [8]	Ratio IC50 (A2780 [9])	Ratio IC50 [10]	Ratio IC50 (A2780 [11])	Ratio IC50 [12]	Ratio IC50 [13]	Ratio IC50 (A2780 [14])
CC(=O)O[C@@]1([C@@H]2/C(C)=C(/O)C(=O)C3=C(C)[C@@H](OC(=O)[C@H](O)[C@H](CC(C)C)NC(=O)OC(C)(C)C)C[C@@](O)([C@H]2OC(=O)c2ccccc2)C3(C)C)CO[C@@H]1CCO	17.4 nM	2240 nM	129	16.8 nM	27.5 nM	2620 nM	2060 nM	8						
COc1cccc(C(=O)O[C@H]2[C@H]([C@]3(OC(C)=O)CO[C@@H]3CCO)/C(C)=C(/O)C(=O)C3=C(C)[C@@H](OC(=O)[C@H](O)[C@H](C=C(C)C)NC(=O)OC(C)(C)C)C[C@]2(O)C3(C)C)c1	4.6 nM	490 nM		5.7 nM	2.6 nM	386 nM	1060 nM		2.1	3	4.3	24	2.3	
COc1cccc(C(=O)O[C@H]2[C@H]([C@]3(OC(C)=O)CO[C@@H]3CCO)/C(C)=C(/O)C(=O)C3=C(C)[C@@H](OC(=O)[C@H](O)[C@H](CC(C)C)NC(=O)OC(C)(C)C)C[C@]2(O)C3(C)C)c1	6.8 nM	211 nM	31	4.3 nM	3.5 nM	356 nM	1120 nM		2.1	3	4.3	24	2.3	
CC(=O)O[C@@]1([C@@H]2/C(C)=C(/O)C(=O)C3=C(C)[C@@H](OC(=O)[C@H](O)[C@H](CC(C)C)NC(=O)OC(C)(C)C)C[C@@](O)([C@H]2OC(=O)c2cccc(Cl)c2)C3(C)C)CO[C@@H]1CCO	5.5 nM	385 nM		4.1 nM	4.6 nM	604 nM	1800 nM		2.1	3	4.3	24	2.3	
CC(=O)O[C@@]1([C@@H]2/C(C)=C(/O)C(=O)C3=C(C)[C@@H](OC(=O)[C@H](O)[C@H](C=C(C)C)NC(=O)OC(C)(C)C)C[C@@](O)([C@H]2OC(=O)c2cccc(Cl)c2)C3(C)C)CO[C@@H]1CCO	4.6 nM	357 nM		4 nM	1.7 nM	452 nM	751 nM		2.1	3	4.3	24	2.3	163
CC(=O)O[C@@]1([C@@H]2/C(C)=C(/O)C(=O)C3=C(C)[C@@H](OC(=O)[C@H](O)[C@H](CC(C)C)NC(=O)OC(C)(C)C)C[C@@](O)([C@H]2OC(=O)c2cccc(F)c2)C3(C)C)CO[C@@H]1CCO	11.1 nM	460 nM		11.8 nM	12.8 nM	3730 nM	1500 nM			3		24	2.3	
CC(=O)O[C@@]1([C@@H]2/C(C)=C(/O)C(=O)C3=C(C)[C@@H](OC(=O)[C@H](O)[C@H](C=C(C)C)NC(=O)OC(C)(C)C)C[C@@](O)([C@H]2OC(=O)c2cccc(F)c2)C3(C)C)CO[C@@H]1CCO						2220 nM				3		24		
